We go through five compounds from US9970929B2, “Voriconazole immunoassays” (ARK Diagnostics, Inc., priority 2013, dated 2018).

Structures are written as SMILES.

The test system of one assay is antibody Ab15461(P3). The assay is described as follows: homogeneous enzyme immunoassay for voriconazole (conjugate VOR-8 G6PDH, HITACHI 917), calibration and crossreactivity. The class given is binding, rabbit. Conditions: for cross reaction with antibody Ab15461(P3), in words: summary of Tables 2 and 3. The source says:
Antibodies obtained using any of the disclosed techniques are screened or purified not only for their ability to react with voriconazole, but for a low cross-reactivity with potential interfering substances. “Cross-reactivity” may be determined in a quantitative immunoassay by establishing a standard curve using known dilutions of the target analyte, voriconazole. The standard curve is then used to calculate the apparent concentration of the interfering substance present in various known amounts in samples assayed under similar condition. The cross-reactivity can be calculated as the apparent concentration divided by the actual concentration multiplied by 100. A certain immunoassay for determining cross-reactivity is a homogeneous enzyme immunoassay using a wild type G6PDH as described in U.S. Pat. No. 3,817,837 or mutant G6PDH engineered to contain a cysteine per subunit as described in U.S. Pat. Nos. 6,033,890, 6,090,567 and 6,455,288. Furthermore, the cross-reactivity can be determined in the same type of immunoassay in which the antibody will ultimately be used.
Rabbit polyclonal antibody Ab15461(P3) was used to measure a substantial change in enzyme activity, generate a calibration curve, and evaluate assay precision, accuracy and specificity. The antibody was added into the antibody diluent to prepare the antibody reagent. The antibody reagent consisted of antibody as prepared above, buffer, stabilizers, preservatives, and the substrates for the enzyme conjugate nicotinamide adenine dinucleotide (NAD^+) and glucose-6-phosphate. Enzyme conjugate including compound VOR-8 G6PDH was added into the conjugate diluent to prepare the enzyme conjugate reagent. The enzyme conjugate reagent included the conjugate, buffer, stabilizers and preservatives. Enzyme conjugate VOR-8 G6PDH was used with rabbit polyclonal antibody Ab15461(P3) in examples below. This technique is generally applicable to produce polyclonal antibodies to voriconazole derivatives and assess their utility.
The voriconazole antibodies and enzyme conjugates may be used in a homogeneous assay format to detect voriconazole samples. An instrument useful to set up the assay is Hitachi 917 Analyzer (Roche). Voriconazole containing sample is incubated with antibody reagent followed by the addition of the enzyme conjugate reagent. The enzyme conjugate activity decreases upon binding to the antibody. The enzyme conjugate, which is not bound to the antibody, catalyzes the oxidation of glucose 6-phosphate (G6P). The oxidation of G6P is coupled with the reduction of NAD^+ to NADH, which can be measured at 340 nm. The change in the absorbance at 340 nm can be measured spectrophotometrically. The voriconazole concentration in a sample can be measured in terms of G6PDH activity. The increase in the rate at 340 nm is due to the formation of NADH and is proportional to the enzyme conjugate activity. An assay curve is generated using voriconazole added into serum negative for voriconazole. The assay rate increases with increasing the concentration of free drug in the sample.
Voriconazole was dissolved in methanol to give a stock solution of 1000 μg/mL. Pooled human serum was aliquoted in 10 mL portions. Voriconazole stock solution was added to the aliquots of human serum in preparing a series of known concentrations of voriconazole calibrators ranging from 0 to 16 μg/mL. The assay was performed using Enzyme Conjugate Reagent NB051:79 containing conjugate VOR-8 G6PDH and Antibody Reagent NB051:79 containing antibody Ab15461(P3). Calibration curves were generated on the HITACHI 917 automated clinical chemistry analyzer, as described in Example 10 by measuring each level in duplicate.
The major metabolic pathway of voriconazole is an enzymatic oxidation of voriconazole. […] The voriconazole metabolite, N-oxide voriconazole was tested in the immunoassay for potential cross reactivity. […]

For a further assay, the system named is antifungal activity. Conditions: in vitro, versus voriconazole; cited from earlier work.
Setting [1] is: antifungal triazole 20 μg/mL added to voriconazole 10 μg/mL in human serum.

`CC[C@@H]([C@H](C)O)n1ncn(-c2ccc(N3CCN(c4ccc(OC[C@@H]5CO[C@@](Cn6cncn6)(c6ccc(F)cc6F)C5)cc4)CC3)cc2)c1=O` [Posaconazole]: the “Cross-reactivity (%)” value in the assay with antibody Ab15461(P3) (setting [1]) was −2.5%. Besides, the “cross reaction with antibody Ab15461(P3), in words” value (shortened to “cross reaction”) in the assay on antibody Ab15461(P3) was “did not significantly crossreact”.
Turning to `OC(Cn1cncn1)(Cn1cncn1)c1ccc(F)cc1F` [Fluconazole], the “Cross-reactivity (%)” value in the assay with antibody Ab15461(P3) (setting [1]) is on record as 2.7%. Moreover, the “cross reaction” value in the assay on antibody Ab15461(P3) is listed as “did not significantly crossreact”.
In the case of `CCC(C)n1ncn(-c2ccc(N3CCN(c4ccc(OCC5COC(Cn6cncn6)(c6ccc(Cl)cc6Cl)O5)cc4)CC3)cc2)c1=O` (stereo not drawn) [Itrconazole, Itraconazole], the “Cross-reactivity (%)” value with antibody Ab15461(P3) (setting [1]) worked out at 1.2%. The “cross reaction” value in the assay on antibody Ab15461(P3) was “did not significantly crossreact”.
Take `C[C@@H](c1ncncc1F)[C@](O)(Cn1cncn1)c1ccc(F)cc1F` [Voriconazole, (2R,3S)-2-(2,4-difluorophenyl)-3-(5-fluoro-4-pyrimidinyl)-1-(1H-1,2,4-triazol-1-yl)-2-butanol]: the “Reaction Rate (mA/min) Average of Duplicates” value with antibody Ab15461(P3) (voriconazole 1.0 μg/mL calibrator in pooled human serum) came out at 327.2 mA/min; with antibody Ab15461(P3) (voriconazole 2.0 μg/mL calibrator in pooled human serum) it was 337.4 mA/min; in the assay on antibody Ab15461(P3) (voriconazole 4.0 μg/mL calibrator in pooled human serum), 349.6 mA/min; in the assay on antibody Ab15461(P3) (voriconazole 8.0 μg/mL calibrator in pooled human serum) it was 362.4 mA/min; in the assay with antibody Ab15461(P3) (voriconazole 16.0 μg/mL calibrator in pooled human serum), 380.4 mA/min.
Consider `C[C@@H](c1nc[n+]([O-])cc1F)[C@](O)(Cn1cncn1)c1ccc(F)cc1F` [Vor-N-Oxide, 4-((2S,3R)-3-(2,4-difluorophenyl)-3-hydroxy-4-(1H-1,2,4-triazol-1-yl)butan-2-yl)-5-fluoropyrimidine 1-oxide], for which the “Cross-reactivity (%)” value in the assay on antibody Ab15461(P3) (Vor-N-Oxide 5 μg/mL added to voriconazole 10 μg/mL in human serum, 100 × (mean Test − mean Control) ÷ conc. tested) is given as 6.7%; in the assay with antibody Ab15461(P3) (Vor-N-Oxide 15 μg/mL added to voriconazole 10 μg/mL in human serum), 6.7%. Also, the “cross reaction” value in the assay with antibody Ab15461(P3) is reported as “does not cross react significantly”. In addition, in the assay on antifungal activity, the “antifungal potency, fold less potent than the parent drug” value is reported as 100 fold.
